Where “and” joins values, the source holds several entries; their conditions need not be identical. Equal values may be shown once. Read-outs that look alike come from different tables or passages of the source. Each block holds one compound with its values, some of them ahead of it.
Tests used:
[1] = 10 µM PU-HZ151, 60 min
[2] = Pharmacokinetic studies in mice (LC-MS/MS); assay type: in vivo, B6D2F1 mice; parameters: Plasma level: unit: uM; details: for Brain level / Plasma level: individual animals; for AUC: male, B6D2F1, mouse, iv, i.v. 10 mg kg^−1
Procedure: Blood and brain tissue were collected following euthanasia at the scheduled time points of 5, 30 min, 1, 4, and 8 h following iv dosing and of 30 min, 1, 4, and 8 h following po dosing. Brain samples were immediately flash frozen in liquid nitrogen following collection and stored at −80 °C until analysis. Blood samples were collected into an EDTA tube by heart puncture and centrifuged at 17,000×g for 5 min at 4 °C to separate the plasma and immediately frozen on dry ice and stored at −80 °C until analysis. […] This was homogenized, extracted with methylene chloride, and evaporated on a GeneVac. […] Drug concentration (μM) in the brain was then modified to account for an average water space of 0.8 mL g^−1.

[3] = target: HSP90 pools in JNPL3 (AD transgenic) mouse brain lysate; assay: Fluorescence polarization (FP) competitive binding, cy3B-GM; details: read-out: FP relative affinity
PAMPA-BBB permeability = details: for PAMPA_BBB: Supplementary Table 6; for Papp at 16 h, 50 μM: pig, PAMPA, pH 7.4
in vitro = details: PAMPA, pH 7.4
[4] = cited from earlier work
MDA-MB-468 cells = assay: Cell viability, ATP levels 72 h; assay type: cell-based, human; details: control MDA-MB-468 of Fig. 6f; mean
patient-derived GSCs = assay: GSC viability (CellTiter-Glo, 48 h); assay type: cell-based, human; parameters: %Survival of cells at day 0 (ATP levels): concentration or dose not given beside the values; %Survival (ATP levels): reference not given here; details: for %Survival (ATP levels): 1 μM, 48 h, individual replicates, listed as PU-H71; for %Survival of cells at day 0 (ATP levels): mean
[5] = for PAMPA_BBB: PAMPA; for PAMPA-BBB: pH 7.4
[6] = displacement of cy3B-GM, 24 h, 4 °C, mean±SD, n=3

Compound: NCCn1c(Sc2cc3c(cc2I)OCO3)nc2c(N)ncnc21 [Compound M1]
% Peak area of metabolite ([1]; replicate 1): 53.0%
% Peak area of metabolite ([1]; replicate 2): 59.1%
Brain level ([2]; time 5 min): 0
Brain level ([2]; time 0.5 h): 0
Brain level ([2]; time 1 h): 0
Brain level ([2]; time 4 h): 0
Brain level ([2]; time 8 h): 0
Plasma level ([2]; time 5 min): 0
Plasma level ([2]; time 0.5 h): 0
Plasma level ([2]; time 1 h): 0
Plasma level ([2]; time 4 h): 0
Plasma level ([2]; time 8 h): 0

Compound: C#CCN(C)CCCn1c(Cc2cc3c(cc2I)OCO3)nc2c(N)nc(F)nc21 [Compound 64]
EC50 [3, 6]: 30 ± 6 nM
PAMPA_BBB (PAMPA-BBB permeability): 11.1±0.1
Papp at 16 h, 50 μM (PAMPA-BBB permeability): 11.1 ×10⁻⁶ cm/s

Compound: CC(C)NCCCn1c(Sc2cc3c(cc2I)OCCO3)nc2c(N)ncnc21 [Compound 28]
EC50 [3, 6]: 34.5 ± 1.7 nM
PAMPA_BBB (PAMPA-BBB permeability): 6.6±0.6
Papp at 16 h, 50 μM (in vitro): 6.6 ± 0.6 ×10⁻⁶ cm/s

Compound: CC(C)(C)CNCCn1c(Sc2cc(O)c(O)cc2I)nc2c(N)ncnc21 [Compound M2]
% Peak area of metabolite ([1]; replicate 1): 13.0%
% Peak area of metabolite ([1]; replicate 2): 9.0%
Brain level ([2]; time 5 min): 0 (3×) and 0.75 and 0.71
Brain level ([2]; time 0.5 h): 0.02 and 0.49 and 0 (2×)
Brain level ([2]; time 1 h): 0 (3×) and 0.04
Brain level ([2]; time 4 h): 0
Brain level ([2]; time 8 h): 0
Plasma level ([2]; time 5 min): 0.04 and 0 (4×)
Plasma level ([2]; time 0.5 h): 0.02 and 0 (3×)
Plasma level ([2]; time 1 h): 0 (3×) and 0.03
Plasma level ([2]; time 4 h): 0
Plasma level ([2]; time 8 h): 0

Compound: CC(C)NCCCn1c(Sc2cc3c(cc2I)OCO3)nc2c(N)ncnc21 [Compound 1, reference compound]
SUV average, Brain ([4]; 0.5 h, mean n=14): 0.17 SUV
SUV average, Lung ([4]; 0.5 h, mean n=14): 0.66 SUV
SUV average, Muscle ([4]; 0.5 h, mean n=14): 0.59 SUV
SUV average, Brain ([4]; 3 h, mean n=24): 0.1104 SUV
SUV average, Lung ([4]; 3 h, mean n=24): 0.37 SUV
SUV average, Muscle ([4]; 3 h, mean n=24): 0.43 SUV
SUV average, Brain ([4]; 24 h, mean n=24): 0.0956 SUV
SUV average, Lung ([4]; 24 h, mean n=24): 0.18 SUV
SUV average, Muscle ([4]; 24 h, mean n=24): 0.18 SUV
%Survival of cells at day 0 (ATP levels) (MDA-MB-468 cells): -92.5%
%Survival (ATP levels) (patient-derived GSCs; GSC #5): 41.476% and 5.798% and 38.7842% and 30.5485%
%Survival (ATP levels) (patient-derived GSCs; GSC #6): -6.57% and -27.89% and 1.15% and -9.59%
%Survival (ATP levels) (patient-derived GSCs; GSC #7): -25.19% and -34.61% and -39.02% and -55.29%
%Survival (ATP levels) (patient-derived GSCs; GSC #8): -77.2% and -77.91% and -68.52% and -70.63%
%Survival (ATP levels) (patient-derived GSCs; GSC #9): -61.441% and -69.079% and -26.869% and -37.387% and -60.84%
%Survival (ATP levels) (patient-derived GSCs; GSC #10): -33.379% and -62.081% and -10.588% and -35.788%
%Survival (ATP levels) (patient-derived GSCs; GSC #13): 34.82% and 22.05% and 9.61% and -0.49%
%Survival (ATP levels) (patient-derived GSCs; GSC #15): -13.07% and -44.27% and -29% and -48.76%
%Survival (ATP levels) (patient-derived GSCs; GSC #18): -1.04% and -53.07% and -13.29% and -52.53% and 13.24% and -19.8%
%Survival (ATP levels) (patient-derived GSCs; GSC #19): -8.867% and -20.5667% and 16.158% and 1.691%
%Survival (ATP levels) (patient-derived GSCs; GSC #24): 12.98% and -42.57% and -22.24% and -59.3% and -24.55% and -39.04%
%Survival (ATP levels) (patient-derived GSCs; GSC #30): -64.892% and -76.295% and -41.317% and -38.952%
%Survival (ATP levels) (patient-derived GSCs; GSC #31): 52.42% and 26.79% and -5.03% and -0.87% and 70.08% and 45.37%
%Survival of cells at day 0 (ATP levels) (patient-derived GSCs; GSC# 5): 29.1%
%Survival of cells at day 0 (ATP levels) (patient-derived GSCs; GSC# 6): -10.7%
%Survival of cells at day 0 (ATP levels) (patient-derived GSCs; GSC# 8): -73.6%
%Survival of cells at day 0 (ATP levels) (patient-derived GSCs; GSC# 9): -51.1%
%Survival of cells at day 0 (ATP levels) (patient-derived GSCs; GSC# 10): -35.4%
%Survival of cells at day 0 (ATP levels) (patient-derived GSCs; GSC# 13): 16.5%
%Survival of cells at day 0 (ATP levels) (patient-derived GSCs; GSC# 15): -33.8%
%Survival of cells at day 0 (ATP levels) (patient-derived GSCs; GSC# 17): 16.9%
%Survival of cells at day 0 (ATP levels) (patient-derived GSCs; GSC# 18): -21.1%
%Survival of cells at day 0 (ATP levels) (patient-derived GSCs; GSC# 19): -2.9%
%Survival of cells at day 0 (ATP levels) (patient-derived GSCs; GSC# 24): -29.1%
%Survival of cells at day 0 (ATP levels) (patient-derived GSCs; GSC# 30): -55.4%
%Survival of cells at day 0 (ATP levels) (patient-derived GSCs; GSC# 31): 31.5%
EC50 [3]: 11 nM
PAMPA_BBB (PAMPA-BBB permeability): 7.3±0.5
Papp at 16 h, 50 μM (PAMPA-BBB permeability): 7.3 ×10⁻⁶ cm/s
AUC ([2]; brain, read-out: brain exposure, AUC): 0.89 µM·h
AUC ([2]; plasma, read-out: plasma exposure, AUC): 3.47 µM·h

Compound: C=Cc1cc2c(cc1Sc1nc3c(N)ncnc3n1CCCNC(C)C)OCO2 [Compound 7]
PAMPA_BBB [5]: 6.1±0.1
PAMPA-BBB [5]: 6.1±0.1 10-6 cms-1
EC50 [3, 6]: 213 ± 7 nM

Compound: C[N+](C)(C)CCCn1c(Cc2cc3c(cc2I)OCO3)nc2c(N)nc(F)nc21 [Compound 72]
EC50 [3, 6]: 155 ± 5 nM
PAMPA_BBB (PAMPA-BBB permeability): 1.3±0.1

Compound: CC(C)CNCCn1c(Sc2cc3c(cc2I)CCO3)nc2c(N)ncnc21 [Compound 86]
PAMPA_BBB [5]: 9.3±0.2
PAMPA-BBB [5]: 9.3±0.2 10-6 cms-1
EC50 [3, 6]: 5.5 ± 0.6 nM

Compound: NCCn1c(Sc2cc(O)c(O)cc2I)nc2c(N)ncnc21 [Compound M5]
% Peak area of metabolite ([1]; replicate 1): 2.5%
% Peak area of metabolite ([1]; replicate 2): 2.9%

Next, values leading:

EC50 [3, 6]: 732 ± 13 nM
PAMPA_BBB (PAMPA-BBB permeability): 11.5±0.4
Papp at 16 h, 50 μM (in vitro): 11.5 ± 0.4 ×10⁻⁶ cm/s
Compound: CC(C)NCCCn1c(Sc2cc3c(cc2-c2ccc(Br)cc2)OCO3)nc2c(N)ncnc21 [Compound 10]

EC50 [3, 6]: 112 ± 6 nM
PAMPA_BBB (PAMPA-BBB permeability): 6.9±0.2
Papp at 16 h, 50 μM (in vitro): 6.9 ± 0.2 ×10⁻⁶ cm/s
Compound: Nc1nc(F)nc2c1nc(Cc1cc3c(cc1I)OCO3)n2CCCN1CCCCC1 [Compound 67]

EC50 [3, 6]: 12.7 ± 1.6 nM
PAMPA_BBB (PAMPA-BBB permeability): 13.3±1.4
Papp at 16 h, 50 μM (PAMPA-BBB permeability): 13.3 ×10⁻⁶ cm/s
Compound: CC(C)(C)NCCCn1c(Cc2cc3c(cc2I)OCO3)nc2c(N)nc(F)nc21 [Compound 59]

EC50 [3, 6]: 813 ± 56 nM
PAMPA_BBB (PAMPA-BBB permeability): 5.9±0.6
Papp at 16 h, 50 μM (in vitro): 5.9 ± 0.6 ×10⁻⁶ cm/s
Compound: CCc1cc2c(cc1Cc1nc3c(N)nc(F)nc3n1CCCNC(C)C)OCO2 [Compound 21]

EC50 [3, 6]: 8 ± 0.4 nM
PAMPA_BBB (PAMPA-BBB permeability): 7.7±0.8
Papp at 16 h, 50 μM (in vitro): 7.7 ± 0.8 ×10⁻⁶ cm/s
Compound: Nc1ncnc2c1nc(Sc1cc3c(cc1I)OCC3)n2CCCBr [Compound 40]

EC50 [3, 6]: 146 ± 9 nM
PAMPA_BBB (PAMPA-BBB permeability): 5.6±0.2
Papp at 16 h, 50 μM (in vitro): 5.6 ± 0.2 ×10⁻⁶ cm/s
Compound: C=Cc1cc2c(cc1Cc1nc3c(N)nc(F)nc3n1CCCNC(C)C)OCO2 [Compound 22]

EC50 [3, 6]: 4.5 ± 0.5 nM
PAMPA_BBB (PAMPA-BBB permeability): 15.1±0.7
Papp at 16 h, 50 μM (PAMPA-BBB permeability): 15.1 ×10⁻⁶ cm/s
Compound: CC(C)NCCCn1c(Sc2cc3c(cc2I)CCC3)nc2c(N)ncnc21 [Compound 53]

EC50 [3, 6]: > 5000 nM
PAMPA_BBB (PAMPA-BBB permeability): 4.6±0.6
Papp at 16 h, 50 μM (in vitro): 4.6 ± 0.6 ×10⁻⁶ cm/s
Compound: C=CCc1cc2c(cc1Cc1nc3c(N)nc(F)nc3n1CCCNC(C)C)OCO2 [Compound 23]

— paper PMC8333062, “Chemical tools for epichaperome-mediated interactome dysfunctions of the central nervous system” (Nature Communications, 2021)
